Source: patent US11666658B2, “Rifamycin analogs and antibody-drug conjugates thereof” (Regeneron Pharmaceuticals, Inc., priority 2018, dated 2023)
Converted amounts (≈) assume the structure as drawn. “Also recorded” adds a separate entry of the source.

What was measured:
S. aureus NRS384 [1] = assay: Broth minimum inhibitory concentration (MIC) assay 1, S. aureus growth inhibition; format: cell-based, Staphylococcus aureus; conditions: S. aureus NRS384 in TSB, 24 h at 37° C., OD600 nm; for MIC: Staphylococcus aureus
Method: To test the potency of rifamycin analogs of the disclosure in vitro, a broth growth inhibition assay was developed. For the assay, S. aureus NRS384 was grown in Tryptic Soy Broth (TSB) overnight, then sub-cultured 1:50 in fresh TSB and grown for an additional two hours. The culture was then pelleted via centrifugation and washed twice in PBS. The culture was then diluted to 1×10^4 cfu/mL in TSB and 50 μL of the suspension was added per well to a 96 well microtiter dish in duplicate. A dilution series of the indicated antibiotic (an analog according to the disclosure or a previously known analog Rifampicin) was added 1:1 for a final starting concentration of 1×10^−5 M with 1:3 dilutions. The plates were incubated at 37° C. with shaking for 24 h and then the OD600 nm was read on a Spectramax i3 Minimax 300.
A plot of the S. aureus inhibition assay conducted with rifamycin analogs according to the disclosure is shown as FIG. 1.

[2] = tested on: intracellular S. aureus NRS384 in THP-1 macrophages; assay: Intracellular killing assay 1 (rifamycin analogs, S. aureus in THP-1 macrophages); format: cell-based, Staphylococcus aureus; conditions: for MIC: Staphylococcus aureus, NRS384, lowest concentration that resulted in intracellular S. aureus eradication
Method: THP-1 monocytic cell line was grown in media (RMPI+10% FBS+1% Penicillin/Streptomycin), then seeded at a density of 1e5 cells/well in a 96 well plate and differentiated into macrophages for three days prior to infection using 200 nM PMA. An overnight culture of S. aureus NRS384 was grown in RPMI, washed twice with PBS and resuspended at 1e7 cfu/mL in PBS. THP-1 were washed with warm media (RMPI without FBS) to remove the Penicillin/Streptomycin and then infected with the S. aureus suspension at a multiplicity of infection of 10:1 (S. aureus: macrophages). Plates were spun at 300×g for 5 minutes to synchronize adhesion of the bacteria, then incubated at 37° C. for 2 hours. Free-floating bacteria were removed by washing 2× with warm media and remaining extracellular S. aureus were killed by addition of media containing gentamicin (50 ug/mL). After 1 h, media was aspirated and the indicated compound was added to infected macrophages in media containing 50 µg/mL gentamicin to prevent extracellular growth of S. aureus. After 2 h, plates were washed 2× with warm RPMI without FBS, and 100 ul of THP-1 lysis buffer (0.1% Triton in PBS) was added to each well. S. aureus survival was enumerated by colony forming units through serial dilution and plating onto TSA.

S. aureus NRS384 [3] = assay: Broth minimum inhibitory concentration (MIC) assay 2; format: cell-based, Staphylococcus aureus; conditions: Staphylococcus aureus; S. aureus NRS384 in TSB, 24 hours at 37° C., OD600; median of at least two independent experiments; read-out: S. aureus Broth MIC
Summary of the method: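 S. aureus NRS384, washed and diluted to 1×10^6 cfu/mL in TSB, incubated with compound in triplicate at 37° C with shaking for 24 hours. Growth read as OD600 nm; MIC reported as median of at least two independent experiments.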

[4] = tested on: intracellular S. aureus NRS384 in THP-1 macrophages; assay: Intracellular killing assay 2 (rifamycin analogs, S. aureus in THP-1 macrophages); format: cell-based, Staphylococcus aureus; conditions: Staphylococcus aureus, NRS384, 2 h; lowest concentration giving intracellular S. aureus below limit of detection (50 cfu/mL) in THP-1 macrophages; median of at least two experiments; read-out: S. aureus Intracellular killing MIC
Summary of the method: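 PMA-differentiated THP-1 cells were infected at MOI 10:1 for 2 h at 37 °C, then extracellular bacteria were killed with gentamicin. Compounds were given for 2 h in gentamicin-containing media. Cells were lysed in 0.1% Triton and surviving bacteria counted as CFU on TSA; median of ≥2 independent experiments.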

[5] = tested on: S. aureus MSRA strain NRS384; assay: S. aureus IV disseminated infection mouse model (4 day model, Balb/c mice), kidney burden; format: in vivo; conditions: 4 day infection model, mAb or conjugate 1 mg/kg, with vancomycin treatment, limit of detection 250 cfu
Method: S. aureus MSRA strain NRS384 was grown overnight in Tryptic soy broth (TSB) and sub-cultured to mid-logarithmic phase. Bacteria were then washed twice with PBS and resuspended in PBS at a concentration of 1.5×10^8 cfu/mL. […] Mice were monitored for weight loss and body conditioning score throughout the infection. […] For quantification, the kidneys were homogenized followed by enumeration of colony forming units through serial dilution in PBS and plating onto trypticase soy agar plates.

[6] = tested on: S. aureus MSRA strain NRS384; assay: S. aureus IV advanced disseminated infection mouse model (8 day model, Balb/c mice), kidney burden; format: in vivo
Method: To test the efficacy of anti-S. aureus Ab-antibiotic ncADCs of the disclosure in combination therapy with standard of care vancomycin in vivo, two different 8 day intravenous disseminated infection models was performed. […] S. aureus MSRA strain NRS384 was grown overnight in Tryptic soy broth (TSB) and sub-cultured to mid-logarithmic phase. Bacteria were then washed twice with PBS and resuspended in PBS at a concentration of 1.5×10^8 cfu/mL. Balb/c mice were then infected intravenously through the tail vein with 100 uL of the bacterial suspension, for a final infectious dose of […]. In the first study, mice were treated either vancomycin alone, an isotype control antibody plus vancomycin, an isotype control Ab-ncADC (Isotype control-36) plus vancomycin, an anti-WTA antibody plus vancomycin, an anti-WTA Ab-Antibiotic ncADC (anti-WTA Ab-Antibiotic ncADC-36), or a different anti-WTA Ab-Antibiotic ncADC (anti-WTA Ab-Antibiotic ncADC-25) plus vancomycin. Mice were also treated either vancomycin alone, an isotype control antibody plus vancomycin, an isotype control Ab-Antibiotic ncADC (Isotype control Ab-Antibiotic ncADC-36) plus vancomycin, an anti-Protein A antibody plus vancomycin, or an anti-Protein A Ab-Antibiotic ncADC (anti-Protein A Ab-Antibiotic ncADC-36).
In the second study, mice were treated either vancomycin alone, an isotype control antibody plus vancomycin, an isotype control Ab-Antibiotic ncADC (Isotype control Ab-Antibiotic ncADC-36) plus vancomycin, a second isotype control Ab-Antibiotic ncADC (Isotype control Ab-Antibiotic ncADC-25) plus vancomycin, a third isotype control Ab-Antibiotic ncADC (Isotype control Ab-Antibiotic ncADC-21) plus vancomycin, an anti-WTA antibody plus vancomycin, an anti-WTA Ab-Antibiotic ncADC (anti-WTA Ab-Antibiotic ncADC-36), a second anti-WTA Ab-Antibiotic ncADC (anti-WTA Ab-Antibiotic ncADC-25) plus vancomycin, or a third anti-WTA Ab-Antibiotic ncADC (anti-WTA Ab-Antibiotic ncADC-21) plus vancomycin. In all studies, for treatment groups that included vancomycin, it was dosed from three to seven days post infection at 110 mg/kg subcutaneously twice daily. For treatment groups that included antibodies and ncADCs, they were administered four days after infection subcutaneously at 2 mg/kg for the first study or 5 mg/kg for the second study. A no treatment infected control and an uninfected control were included in each of the studies. Mice were monitored for weight loss and body conditioning score throughout the infection. At eight days post infection, mice were euthanized, and the S. aureus kidney burden was quantified. For quantification, the kidneys were homogenized followed by enumeration of colony forming units through serial dilution in PBS and plating onto trypticase soy agar plates. Data points represent the kidney burden from individual mice tested.

| MIC (S. aureus NRS384 [1]) | Compound | intracellular S. aureus killing capacity compared to rifampicin (in words) [2] | MIC ([2]; 2 h with compound) | other results |
| --- | --- | --- | --- | --- |
| 0.041 µM (≈ 0.0362 µg/mL) | CO[C@H]1/C=C/O[C@@]2(C)Oc3c(C)c(O)c4c(=O)c(c5oc6cc(OC7CCNCC7)ccc6nc-5c4c3C2=O)NC(=O)/C(C)=C\C=C\[C@H](C)[C@H](O)[C@@H](C)[C@@H](O)[C@@H](C)[C@H](OC(C)=O)[C@@H]1C [Analog 14] | increased intracellular S. aureus killing capacity compared to rifampicin | 1 µM (≈ 0.884 µg/mL) | – |
| 0.0015 µM (≈ 0.00131 µg/mL) | CO[C@H]1/C=C/O[C@@]2(C)Oc3c(C)c(O)c4c(=O)c(c5oc6cc(OCCN(C)C)ccc6nc-5c4c3C2=O)NC(=O)/C(C)=C\C=C\[C@H](C)[C@H](O)[C@@H](C)[C@@H](O)[C@@H](C)[C@H](OC(C)=O)[C@@H]1C [Analog 16a] | increased intracellular S. aureus killing capacity compared to rifampicin; also recorded: highest activity | 0.04 µM (≈ 0.0349 µg/mL) | – |
| 0.041 µM (≈ 0.0352 µg/mL) | CNCCOc1ccc2nc3c4c5c6c(C)c(O)c4c(=O)c(c-3oc2c1)NC(=O)/C(C)=C\C=C\[C@H](C)[C@H](O)[C@@H](C)[C@@H](O)[C@@H](C)[C@H](OC(C)=O)[C@H](C)[C@@H](OC)/C=C/O[C@@](C)(O6)C5=O [Analog 16d] | increased intracellular S. aureus killing capacity compared to rifampicin | 1 µM (≈ 0.858 µg/mL) | – |
| 0.0046 µM (≈ 0.00388 µg/mL) | CO[C@H]1/C=C/O[C@@]2(C)Oc3c(C)c(O)c4c(=O)c(c5oc6cc(OCCN)ccc6nc-5c4c3C2=O)NC(=O)/C(C)=C\C=C\[C@H](C)[C@H](O)[C@@H](C)[C@@H](O)[C@@H](C)[C@H](OC(C)=O)[C@@H]1C [Analog 16e] | increased intracellular S. aureus killing capacity compared to rifampicin | 1 µM (≈ 0.844 µg/mL) | – |
| – | CO[C@H]1/C=C/O[C@@]2(C)Oc3c(C)c(O)c4c(O)c(c(/C=N/N5CCN(C)CC5)c(O)c4c3C2=O)NC(=O)/C(C)=C\C=C\[C@H](C)[C@H](O)[C@@H](C)[C@@H](O)[C@@H](C)[C@H](OC(C)=O)[C@@H]1C [Rifampicin, rifampicin, reference compound] | – | – | S. aureus Broth MIC (S. aureus NRS384 [1]): 0.0046 µM; Intracellular killing MIC ([2]; lowest concentration that resulted in intracellular S. aureus eradication, 2 h with compound): >1.0E−06; MIC (S. aureus NRS384 [3]): 0.00391 µM (≈ 0.00322 µg/mL); MIC [4]: 1 µM (≈ 0.823 µg/mL) |
| – | CN[C@H](CC(C)C)C(=O)N[C@H]1C(=O)N[C@@H](CC(N)=O)C(=O)N[C@H]2C(=O)N[C@H]3C(=O)N[C@H](C(=O)N[C@H](C(=O)O)c4cc(O)cc(O)c4-c4cc3ccc4O)[C@H](O)c3ccc(c(Cl)c3)Oc3cc2cc(c3O[C@@H]2O[C@H](CO)[C@@H](O)[C@H](O)[C@H]2O[C@H]2C[C@](C)(N)[C@H](O)[C@H](C)O2)Oc2ccc(cc2Cl)[C@H]1O [vancomycin] | – | – | Median cfu/kidney pair [5]: 4.38E+05 cfu/kidney pair; Median cfu/kidney pair ([6]; Balb/c mice, 8 day model, first study (Table 37, anti-Protein A), mAb or conjugate 2 mg/kg, with vancomycin treatment): 7.25E+06 cfu/kidney pair; Median cfu/kidney pair ([6]; Balb/c mice, 8 day model, second study (Table 38), mAb or conjugate 5 mg/kg, with vancomycin treatment): 1.88E+06 cfu/kidney pair; reduction of S. aureus kidney burden ([6]; first study, vancomycin alone 110 mg/kg subcutaneously twice daily day 3 to 7, kidneys at day 8): 1-2 logs; Median cfu/kidney pair ([6]; in vivo): 7.25E+06 cfu/kidney pair; reduction of S. aureus kidney bacterial burden ([6]; second study, vancomycin alone): 1-2 logs |
